Laboratory results published in ChEMBL document CHEMBL1146684, “An electrochemical device for the assay of the interaction between a dioxin receptor and its various ligands” (Bioorg Med Chem Lett, 2004).

These compounds were tested against T1, Aryl hydrocarbon receptor (Homo sapiens, UniProt P35869) (assay: Compound tested for its binding to human Orphan receptor (AhR); Active).
T1 sequence (P35869 whole entry): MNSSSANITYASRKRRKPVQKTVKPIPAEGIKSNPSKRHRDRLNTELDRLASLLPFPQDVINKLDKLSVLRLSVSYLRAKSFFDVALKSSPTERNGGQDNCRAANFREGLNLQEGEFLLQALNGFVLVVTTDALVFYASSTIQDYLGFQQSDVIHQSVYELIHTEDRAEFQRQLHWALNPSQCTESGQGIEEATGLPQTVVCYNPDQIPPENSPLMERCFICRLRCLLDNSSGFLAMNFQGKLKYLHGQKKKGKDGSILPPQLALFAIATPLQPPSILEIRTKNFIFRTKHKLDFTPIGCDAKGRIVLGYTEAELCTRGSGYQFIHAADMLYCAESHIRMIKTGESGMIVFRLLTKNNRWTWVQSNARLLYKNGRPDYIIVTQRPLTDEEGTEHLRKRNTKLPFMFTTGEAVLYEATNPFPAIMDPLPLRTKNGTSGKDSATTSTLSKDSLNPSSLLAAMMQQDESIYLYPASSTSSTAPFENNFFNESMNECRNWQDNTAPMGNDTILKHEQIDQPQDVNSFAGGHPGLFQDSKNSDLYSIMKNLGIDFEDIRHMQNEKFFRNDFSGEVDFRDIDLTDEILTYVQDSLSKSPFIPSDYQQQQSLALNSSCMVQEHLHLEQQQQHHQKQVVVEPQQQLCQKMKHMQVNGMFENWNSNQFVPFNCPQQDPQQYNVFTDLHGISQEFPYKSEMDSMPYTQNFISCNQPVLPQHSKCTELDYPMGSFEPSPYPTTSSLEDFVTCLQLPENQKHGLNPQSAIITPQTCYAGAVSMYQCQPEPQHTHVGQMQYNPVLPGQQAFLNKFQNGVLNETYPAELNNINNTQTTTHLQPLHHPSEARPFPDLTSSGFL

Row | Structure (SMILES) | Activity
1 | Clc1cc2c(cc1Cl)Oc1cc(Cl)c(Cl)cc1O2 [2,3,7,8-TETRACHLORODIBENZO-P-DIOXIN] | Active
2 | c1ccc2c(c1)cc1ccc3cccc4ccc2c1c34 [BENZO[DEF]CHRYSENE] | Active
3 | O=c1cc(-c2ccccc2)oc2ccc3ccccc3c12 [BETA-NAPHTHOFLAVONE] | Active
